Measured values: paper PMC6576746, “Rational discovery of dual-indication multi-target PDE/Kinase inhibitor for precision anti-cancer therapy using structural systems pharmacology” (PLoS Computational Biology, 2019)

Tests used:
Test in all cases: biochemical
Design in all cases: DiscoverX KinomeScan competition binding assay across human kinases; per cent of control at 10 and 100 uM
LATS2 = LATS2 (Homo sapiens, UniProt Q9NRM7); details: competition binding, % of control; read-out: Percent Control (100 uM Levosimendan)
How it was run: (§1)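 Binding is expressed as %control, normalised between positive and negative control signals. The compound (levosimendan) was tested at 10 μM and 100 μM in the DiscoverX KinomeScan competition binding format against human kinases.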

SgK110 = target: T1, SgK110 (Homo sapiens, UniProt P0C264); details: competition binding, % of control; read-out: Percent Control (100 uM Levosimendan)
T1 construct: gene SBK3
How it was run: as §1

EPHA3 = EPHA3 (Homo sapiens, UniProt P29320); details: competition binding, % of control; read-out: Percent Control (100 uM Levosimendan)
How it was run: as §1

PRKD3 = PRKD3 (Homo sapiens, UniProt O94806); details: competition binding, % of control; read-out: Percent Control (100 uM Levosimendan)
How it was run: as §1

LZK = target: T2, LZK (Homo sapiens, UniProt O43283); details: competition binding, % of control; read-out: Percent Control (100 uM Levosimendan)
T2 construct: gene MAP3K13
T2 sequence (O43283 whole entry): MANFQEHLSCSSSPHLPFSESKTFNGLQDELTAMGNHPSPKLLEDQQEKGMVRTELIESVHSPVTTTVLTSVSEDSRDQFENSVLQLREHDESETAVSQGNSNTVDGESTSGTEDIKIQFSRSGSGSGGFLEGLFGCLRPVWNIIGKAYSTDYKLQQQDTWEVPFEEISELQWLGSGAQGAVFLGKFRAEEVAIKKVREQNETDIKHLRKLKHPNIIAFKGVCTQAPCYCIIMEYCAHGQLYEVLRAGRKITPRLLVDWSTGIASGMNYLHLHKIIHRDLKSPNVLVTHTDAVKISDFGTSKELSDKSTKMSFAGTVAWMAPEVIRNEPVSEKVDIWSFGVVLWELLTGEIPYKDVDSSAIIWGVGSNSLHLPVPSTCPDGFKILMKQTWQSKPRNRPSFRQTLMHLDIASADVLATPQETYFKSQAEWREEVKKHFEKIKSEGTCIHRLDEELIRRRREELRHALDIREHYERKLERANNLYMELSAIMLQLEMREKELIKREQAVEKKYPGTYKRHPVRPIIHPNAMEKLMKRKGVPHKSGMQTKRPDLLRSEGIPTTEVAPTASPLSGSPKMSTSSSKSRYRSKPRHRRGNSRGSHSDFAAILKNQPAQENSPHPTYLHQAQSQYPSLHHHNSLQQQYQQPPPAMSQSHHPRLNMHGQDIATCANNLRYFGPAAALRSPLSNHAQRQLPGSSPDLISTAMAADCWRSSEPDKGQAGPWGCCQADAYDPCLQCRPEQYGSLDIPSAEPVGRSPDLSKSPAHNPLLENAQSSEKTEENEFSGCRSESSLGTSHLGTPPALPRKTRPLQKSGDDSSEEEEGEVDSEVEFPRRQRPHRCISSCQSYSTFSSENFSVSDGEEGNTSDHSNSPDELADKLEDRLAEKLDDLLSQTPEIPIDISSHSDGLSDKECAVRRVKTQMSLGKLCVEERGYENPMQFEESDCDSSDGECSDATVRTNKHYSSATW
How it was run: as §1

TSSK1B = TSSK1B (Homo sapiens, UniProt Q9BXA7); details: competition binding, % of control; read-out: Percent Control (100 uM Levosimendan)
How it was run: as §1

ERK3 = target: T3, ERK3 (Homo sapiens, UniProt Q16659); details: competition binding, % of control; read-out: Percent Control (100 uM Levosimendan)
T3 construct: gene MAPK6
How it was run: as §1

TEC = TEC (Homo sapiens, UniProt P42680); details: competition binding, % of control; read-out: Percent Control (100 uM Levosimendan)
How it was run: as §1

PRKD2 = PRKD2 (Homo sapiens, UniProt Q9BZL6); details: competition binding, % of control; read-out: Percent Control (100 uM Levosimendan)
PRKD2, sequence (Q9BZL6 whole entry): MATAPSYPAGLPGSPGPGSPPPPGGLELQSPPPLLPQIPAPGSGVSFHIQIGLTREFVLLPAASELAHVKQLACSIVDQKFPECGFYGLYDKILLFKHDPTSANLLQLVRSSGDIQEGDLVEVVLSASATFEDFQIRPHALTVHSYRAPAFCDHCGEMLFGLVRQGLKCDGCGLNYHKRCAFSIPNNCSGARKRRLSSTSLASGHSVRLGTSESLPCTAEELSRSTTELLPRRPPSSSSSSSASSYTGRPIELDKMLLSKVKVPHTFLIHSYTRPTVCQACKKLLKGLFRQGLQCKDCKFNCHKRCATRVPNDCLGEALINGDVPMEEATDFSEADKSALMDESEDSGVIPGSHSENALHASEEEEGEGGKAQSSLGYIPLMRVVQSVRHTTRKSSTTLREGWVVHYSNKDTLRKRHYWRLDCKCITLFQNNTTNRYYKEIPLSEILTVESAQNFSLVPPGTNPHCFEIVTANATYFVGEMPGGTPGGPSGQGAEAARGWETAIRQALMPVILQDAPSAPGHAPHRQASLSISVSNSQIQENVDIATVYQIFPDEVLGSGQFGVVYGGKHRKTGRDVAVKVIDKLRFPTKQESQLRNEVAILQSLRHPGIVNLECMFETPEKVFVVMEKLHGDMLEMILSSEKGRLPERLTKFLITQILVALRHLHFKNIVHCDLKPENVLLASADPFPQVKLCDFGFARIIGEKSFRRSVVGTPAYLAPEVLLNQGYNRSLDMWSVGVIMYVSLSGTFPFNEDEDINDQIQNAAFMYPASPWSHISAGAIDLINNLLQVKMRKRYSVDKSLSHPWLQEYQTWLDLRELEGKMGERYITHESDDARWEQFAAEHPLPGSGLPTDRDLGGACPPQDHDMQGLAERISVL
How it was run: as §1

SBK1 = SBK1 (Homo sapiens, UniProt Q52WX2); details: competition binding, % of control; read-out: Percent Control (100 uM Levosimendan)
SBK1, sequence (Q52WX2 whole entry): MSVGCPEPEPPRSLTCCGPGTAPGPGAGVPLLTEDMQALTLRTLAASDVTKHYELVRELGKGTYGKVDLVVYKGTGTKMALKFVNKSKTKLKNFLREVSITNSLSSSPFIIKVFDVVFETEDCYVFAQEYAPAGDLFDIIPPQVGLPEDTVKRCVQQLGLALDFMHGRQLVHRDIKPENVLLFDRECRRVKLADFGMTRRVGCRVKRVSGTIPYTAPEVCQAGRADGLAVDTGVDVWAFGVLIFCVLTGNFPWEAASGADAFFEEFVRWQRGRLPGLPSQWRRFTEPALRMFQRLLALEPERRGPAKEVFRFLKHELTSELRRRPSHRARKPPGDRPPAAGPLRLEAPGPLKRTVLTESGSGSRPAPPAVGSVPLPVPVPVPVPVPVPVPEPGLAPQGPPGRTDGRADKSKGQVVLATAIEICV
How it was run: as §1

EPHA8 = EPHA8 (Homo sapiens, UniProt P29322); details: competition binding, % of control; read-out: Percent Control (100 uM Levosimendan)
How it was run: as §1

EGFR(L858R,T790M) = EGFR(L858R,T790M) (Homo sapiens, UniProt P00533, L858R/T790M); details: competition binding, % of control; read-out: Percent Control (100 uM Levosimendan)
How it was run: as §1

ASK2 = target: T4, ASK2 (Homo sapiens, UniProt O95382); details: competition binding, % of control; read-out: Percent Control (100 uM Levosimendan)
T4 construct: gene MAP3K6
How it was run: as §1

TNK1 = TNK1 (Homo sapiens, UniProt Q13470); details: competition binding, % of control; read-out: Percent Control (100 uM Levosimendan)
How it was run: as §1

RET(V804M) = RET(V804M) (Homo sapiens, UniProt P07949, V804M); details: competition binding, % of control; read-out: Percent Control (100 uM Levosimendan)
How it was run: as §1

FER = FER (Homo sapiens, UniProt P16591); details: competition binding, % of control; read-out: Percent Control (100 uM Levosimendan)
FER, sequence (P16591 whole entry): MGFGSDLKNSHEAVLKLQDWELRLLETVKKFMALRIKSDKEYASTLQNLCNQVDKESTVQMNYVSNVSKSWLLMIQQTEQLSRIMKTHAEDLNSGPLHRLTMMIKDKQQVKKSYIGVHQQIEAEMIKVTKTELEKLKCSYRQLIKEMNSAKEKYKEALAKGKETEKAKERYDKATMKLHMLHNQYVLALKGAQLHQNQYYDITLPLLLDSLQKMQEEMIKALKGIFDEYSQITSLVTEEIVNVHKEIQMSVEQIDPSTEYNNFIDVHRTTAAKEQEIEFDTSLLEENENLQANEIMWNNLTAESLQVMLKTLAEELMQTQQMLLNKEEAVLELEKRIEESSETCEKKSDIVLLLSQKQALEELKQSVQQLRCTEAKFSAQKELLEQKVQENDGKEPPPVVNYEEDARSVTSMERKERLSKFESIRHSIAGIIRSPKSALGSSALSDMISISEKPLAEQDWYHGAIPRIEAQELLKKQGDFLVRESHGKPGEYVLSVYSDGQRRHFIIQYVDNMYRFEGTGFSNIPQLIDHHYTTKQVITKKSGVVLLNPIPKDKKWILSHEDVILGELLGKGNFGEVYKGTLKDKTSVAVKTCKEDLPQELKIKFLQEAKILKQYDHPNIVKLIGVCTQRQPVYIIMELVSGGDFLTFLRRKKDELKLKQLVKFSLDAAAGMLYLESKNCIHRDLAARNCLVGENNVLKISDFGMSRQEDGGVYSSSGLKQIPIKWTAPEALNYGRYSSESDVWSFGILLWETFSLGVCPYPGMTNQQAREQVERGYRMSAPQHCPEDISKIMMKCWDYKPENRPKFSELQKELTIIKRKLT
How it was run: as §1

CSNK1G3 = CSNK1G3 (Homo sapiens, UniProt Q9Y6M4); details: competition binding, % of control
CSNK1G3, sequence (Q9Y6M4 whole entry): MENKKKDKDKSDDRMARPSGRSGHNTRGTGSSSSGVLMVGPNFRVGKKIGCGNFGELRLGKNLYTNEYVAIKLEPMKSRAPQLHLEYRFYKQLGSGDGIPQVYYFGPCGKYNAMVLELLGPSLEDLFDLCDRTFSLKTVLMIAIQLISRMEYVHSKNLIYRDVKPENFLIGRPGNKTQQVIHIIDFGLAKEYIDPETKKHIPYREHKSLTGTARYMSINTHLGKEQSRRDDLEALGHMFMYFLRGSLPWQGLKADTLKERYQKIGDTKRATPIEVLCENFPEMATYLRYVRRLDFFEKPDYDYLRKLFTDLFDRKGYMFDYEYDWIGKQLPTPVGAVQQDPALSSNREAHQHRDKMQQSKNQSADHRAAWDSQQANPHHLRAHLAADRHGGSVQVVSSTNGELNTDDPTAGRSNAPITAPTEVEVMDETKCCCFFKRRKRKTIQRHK
How it was run: as §1

PRKCD = PRKCD (Homo sapiens, UniProt Q05655); details: competition binding, % of control
PRKCD, sequence (Q05655 whole entry): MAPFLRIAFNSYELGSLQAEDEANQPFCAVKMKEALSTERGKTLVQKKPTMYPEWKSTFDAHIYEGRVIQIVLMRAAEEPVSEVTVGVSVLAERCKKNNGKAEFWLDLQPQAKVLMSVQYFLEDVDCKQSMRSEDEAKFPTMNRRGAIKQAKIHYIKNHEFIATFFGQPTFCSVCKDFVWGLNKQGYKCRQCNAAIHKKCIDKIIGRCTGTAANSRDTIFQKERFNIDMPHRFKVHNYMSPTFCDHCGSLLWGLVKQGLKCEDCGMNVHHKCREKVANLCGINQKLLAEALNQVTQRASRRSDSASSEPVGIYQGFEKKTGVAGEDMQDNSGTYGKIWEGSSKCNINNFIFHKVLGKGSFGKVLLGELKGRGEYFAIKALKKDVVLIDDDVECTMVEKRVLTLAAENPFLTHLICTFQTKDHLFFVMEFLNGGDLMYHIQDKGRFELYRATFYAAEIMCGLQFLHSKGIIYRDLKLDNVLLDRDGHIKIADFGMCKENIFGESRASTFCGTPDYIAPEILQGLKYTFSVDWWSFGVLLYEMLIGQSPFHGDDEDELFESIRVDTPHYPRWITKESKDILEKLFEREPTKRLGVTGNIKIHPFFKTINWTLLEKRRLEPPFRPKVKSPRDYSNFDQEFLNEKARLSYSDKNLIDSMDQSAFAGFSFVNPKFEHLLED
How it was run: as §1

[1] = target: T5, RPS6KA5(Kin.Dom.1-N-terminal) (Homo sapiens, UniProt O75582); details: competition binding, % of control; read-out: Percent Control (100 uM Levosimendan)
T5 construct: Kin.Dom.1-N-terminal
T5 sequence (O75582 whole entry): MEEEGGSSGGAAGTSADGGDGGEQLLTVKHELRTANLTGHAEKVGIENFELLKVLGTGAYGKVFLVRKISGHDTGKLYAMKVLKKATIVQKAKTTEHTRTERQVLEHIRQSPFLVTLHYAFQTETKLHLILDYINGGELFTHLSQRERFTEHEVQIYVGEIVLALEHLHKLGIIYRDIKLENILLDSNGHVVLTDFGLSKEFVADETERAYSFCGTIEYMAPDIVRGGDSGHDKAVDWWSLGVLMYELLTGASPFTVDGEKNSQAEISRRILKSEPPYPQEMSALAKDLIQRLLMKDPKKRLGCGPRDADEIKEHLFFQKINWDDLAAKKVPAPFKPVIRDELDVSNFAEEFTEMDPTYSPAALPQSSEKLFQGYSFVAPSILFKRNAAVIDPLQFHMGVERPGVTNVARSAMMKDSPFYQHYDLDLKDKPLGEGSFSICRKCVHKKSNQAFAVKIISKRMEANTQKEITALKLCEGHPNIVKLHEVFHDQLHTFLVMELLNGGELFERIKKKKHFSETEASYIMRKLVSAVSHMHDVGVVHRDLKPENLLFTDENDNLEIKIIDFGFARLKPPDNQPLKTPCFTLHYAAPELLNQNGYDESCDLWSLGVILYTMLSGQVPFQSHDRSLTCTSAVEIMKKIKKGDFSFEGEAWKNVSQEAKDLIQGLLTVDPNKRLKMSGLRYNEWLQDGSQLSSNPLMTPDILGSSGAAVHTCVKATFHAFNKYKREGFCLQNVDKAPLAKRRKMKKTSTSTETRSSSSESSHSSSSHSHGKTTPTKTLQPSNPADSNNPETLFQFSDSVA
How it was run: as §1

[2] = read-out: Percent Control (10 uM Levosimendan)
[3] = read-out: Percent Control (100 uM Levosimendan)

C[C@@H]1CC(=O)NN=C1c1ccc(NN=C(C#N)C#N)cc1 [levosimendan]
remaining binding at 100 µM (LATS2): 100%
remaining binding at 100 µM (SgK110): 100%
remaining binding at 100 µM (EPHA3): 97%
remaining binding at 100 µM (PRKD3): 100%
remaining binding at 100 µM (LZK): 100%
remaining binding at 100 µM (TSSK1B): 85%
remaining binding at 100 µM (ERK3): 79%
remaining binding at 100 µM (TEC): 74%
remaining binding at 100 µM (PRKD2): 75%
remaining binding at 100 µM (SBK1): 78%
remaining binding at 100 µM (EPHA8): 91%
remaining binding at 100 µM (EGFR(L858R,T790M)): 82%
remaining binding at 100 µM (ASK2): 80%
remaining binding at 100 µM (TNK1): 100%
remaining binding at 100 µM (RET(V804M)): 80%
remaining binding at 100 µM (FER): 100%
remaining binding at 10 µM (CSNK1G3; [2]): 83%
remaining binding at 100 µM (CSNK1G3; [3]): 36%
remaining binding at 10 µM (PRKCD; [2]): 93%
remaining binding at 100 µM (PRKCD; [3]): 48%
remaining binding at 100 µM [1]: 62%
